Tests used:
[1] = target: Butyrylcholinesterase (Equus caballus, UniProt Q9N1N9); assay: Inhibitory activity against Butyrylcholinesterase
[2] = target: Acetylcholinesterase (Electrophorus electricus, UniProt O42275); assay: Inhibitory activity against acetylcholinesterase
[3] = target: Acetylcholinesterase (Electrophorus electricus) (UniProt O42275); assay: Selectivity ratio of inhibition of acetylcholinesterase-AChE to that of inhibition of butyrylcholinesterase-BChE
Acetylcholinesterase (Electrophorus electricus), sequence (O42275 24-633 limits assumed): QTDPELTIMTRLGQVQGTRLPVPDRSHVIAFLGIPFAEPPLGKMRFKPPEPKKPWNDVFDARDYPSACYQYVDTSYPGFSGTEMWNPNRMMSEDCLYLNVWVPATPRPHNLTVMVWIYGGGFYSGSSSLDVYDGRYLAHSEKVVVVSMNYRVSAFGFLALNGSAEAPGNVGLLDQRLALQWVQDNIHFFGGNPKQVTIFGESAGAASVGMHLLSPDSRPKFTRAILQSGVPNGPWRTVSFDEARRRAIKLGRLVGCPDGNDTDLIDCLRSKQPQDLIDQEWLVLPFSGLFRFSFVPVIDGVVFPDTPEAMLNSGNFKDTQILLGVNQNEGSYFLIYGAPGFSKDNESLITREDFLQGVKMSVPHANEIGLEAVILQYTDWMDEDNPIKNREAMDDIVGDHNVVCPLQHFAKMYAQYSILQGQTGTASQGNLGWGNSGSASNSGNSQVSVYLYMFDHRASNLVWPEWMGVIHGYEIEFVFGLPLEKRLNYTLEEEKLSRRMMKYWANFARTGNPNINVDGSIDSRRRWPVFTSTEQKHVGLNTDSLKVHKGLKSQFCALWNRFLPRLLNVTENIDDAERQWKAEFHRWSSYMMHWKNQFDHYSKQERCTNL

Butyrylcholinesterase, sequence (Q9N1N9 whole entry): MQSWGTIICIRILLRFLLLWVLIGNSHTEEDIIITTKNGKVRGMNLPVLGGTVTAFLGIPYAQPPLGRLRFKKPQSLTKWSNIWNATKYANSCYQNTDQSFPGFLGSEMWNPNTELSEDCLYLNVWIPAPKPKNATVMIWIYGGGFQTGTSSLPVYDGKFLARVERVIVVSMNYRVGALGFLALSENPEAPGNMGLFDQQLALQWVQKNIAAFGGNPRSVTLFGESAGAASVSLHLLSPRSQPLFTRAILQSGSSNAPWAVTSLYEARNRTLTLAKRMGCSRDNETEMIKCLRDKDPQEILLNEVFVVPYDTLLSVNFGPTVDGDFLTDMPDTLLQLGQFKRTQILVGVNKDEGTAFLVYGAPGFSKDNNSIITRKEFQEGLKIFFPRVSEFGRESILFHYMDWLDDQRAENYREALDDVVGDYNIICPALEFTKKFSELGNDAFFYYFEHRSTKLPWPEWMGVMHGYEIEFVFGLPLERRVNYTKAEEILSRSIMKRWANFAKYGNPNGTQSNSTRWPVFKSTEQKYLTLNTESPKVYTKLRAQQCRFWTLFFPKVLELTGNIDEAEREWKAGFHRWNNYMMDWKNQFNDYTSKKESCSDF
Acetylcholinesterase, sequence (O42275 whole entry): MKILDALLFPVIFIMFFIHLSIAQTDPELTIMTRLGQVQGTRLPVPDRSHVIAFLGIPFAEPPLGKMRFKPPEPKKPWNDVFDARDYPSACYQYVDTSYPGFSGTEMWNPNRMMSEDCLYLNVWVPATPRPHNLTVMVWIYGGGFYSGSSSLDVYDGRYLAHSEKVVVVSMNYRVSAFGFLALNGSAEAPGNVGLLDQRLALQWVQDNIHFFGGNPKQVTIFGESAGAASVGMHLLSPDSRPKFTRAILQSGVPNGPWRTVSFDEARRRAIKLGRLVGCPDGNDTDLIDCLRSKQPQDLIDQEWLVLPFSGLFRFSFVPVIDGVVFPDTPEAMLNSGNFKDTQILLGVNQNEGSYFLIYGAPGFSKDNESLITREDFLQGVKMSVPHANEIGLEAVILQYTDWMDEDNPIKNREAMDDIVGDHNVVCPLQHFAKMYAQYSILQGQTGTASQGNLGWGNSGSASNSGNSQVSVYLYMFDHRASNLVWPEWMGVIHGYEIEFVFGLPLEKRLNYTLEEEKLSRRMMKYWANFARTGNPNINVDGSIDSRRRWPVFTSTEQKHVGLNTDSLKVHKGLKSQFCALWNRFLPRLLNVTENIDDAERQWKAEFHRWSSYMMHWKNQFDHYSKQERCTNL

| SMILES | Ki [1] [nM] | Ki [2] [nM] | Ratio [3] |
| --- | --- | --- | --- |
| COc1cc(CNC2C3N(Cc4cc(OC)cc(OC)c4)C4C(N2Cc2cc(OC)cc(OC)c2)N(Cc2cc(OC)cc(OC)c2)C2(CC2N3Cc2cc(OC)cc(OC)c2)N4Cc2cc(OC)cc(OC)c2)cc(OC)c1 (centres undefined) | 60 | 130 | 2.2 |
| c1cc2c(cc1CNC1C3N(Cc4ccc5c(c4)OCO5)C4C(N1Cc1ccc5c(c1)OCO5)N(Cc1ccc5c(c1)OCO5)C1(CC1N3Cc1ccc3c(c1)OCO3)N4Cc1ccc3c(c1)OCO3)OCO2 (centres undefined) | 310 | 320 | 1 |
| Clc1ccccc1CNC1C2N(Cc3ccccc3Cl)C3C(N1Cc1ccccc1Cl)N(Cc1ccccc1Cl)C1(CC1N2Cc1ccccc1Cl)N3Cc1ccccc1Cl (centres undefined) | 10 | 39 | 3.9 |
